In patent US20240246967A1, “AXL COMPOUNDS” (ARCUS BIOSCIENCES, INC., priority 2021, published 2024):

Columns and labels:
[1] = target: T1, human MER (Homo sapiens, UniProt Q12866); assay: HTRF KinEASE-TK biochemical potency assay, MER; settings: 1 nM MER, 700 μM ATP, 800 nM TK Substrate-biotin
T1 construct: purchased Invitrogen
T1 sequence (Q12866 21-999): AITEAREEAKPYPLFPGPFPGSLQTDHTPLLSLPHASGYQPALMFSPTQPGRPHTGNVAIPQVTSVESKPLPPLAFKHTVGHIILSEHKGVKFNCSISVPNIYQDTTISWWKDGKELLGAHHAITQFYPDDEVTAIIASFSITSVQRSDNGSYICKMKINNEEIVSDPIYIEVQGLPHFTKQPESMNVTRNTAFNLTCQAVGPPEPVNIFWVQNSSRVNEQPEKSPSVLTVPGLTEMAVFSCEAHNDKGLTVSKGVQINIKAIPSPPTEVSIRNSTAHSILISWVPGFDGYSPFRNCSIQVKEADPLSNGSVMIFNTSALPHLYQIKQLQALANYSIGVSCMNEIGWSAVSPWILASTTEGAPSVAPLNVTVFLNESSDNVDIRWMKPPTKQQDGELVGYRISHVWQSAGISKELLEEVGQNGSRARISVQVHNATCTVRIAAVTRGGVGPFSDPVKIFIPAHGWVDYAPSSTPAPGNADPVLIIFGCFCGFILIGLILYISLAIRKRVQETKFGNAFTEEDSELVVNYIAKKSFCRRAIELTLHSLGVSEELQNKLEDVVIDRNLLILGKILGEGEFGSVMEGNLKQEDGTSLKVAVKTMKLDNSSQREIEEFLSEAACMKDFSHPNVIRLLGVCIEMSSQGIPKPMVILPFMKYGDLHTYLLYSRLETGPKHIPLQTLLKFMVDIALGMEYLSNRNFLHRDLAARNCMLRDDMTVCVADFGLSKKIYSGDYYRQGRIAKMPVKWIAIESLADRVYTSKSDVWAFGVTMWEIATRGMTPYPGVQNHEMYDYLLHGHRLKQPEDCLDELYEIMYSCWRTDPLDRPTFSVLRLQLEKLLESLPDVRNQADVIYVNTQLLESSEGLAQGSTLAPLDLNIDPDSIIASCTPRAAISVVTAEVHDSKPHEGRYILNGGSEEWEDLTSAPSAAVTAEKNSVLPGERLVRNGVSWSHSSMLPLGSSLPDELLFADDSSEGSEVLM
Procedure: (§1) Purified recombinant human AXL, TYRO3 and MER proteins were purchased from Invitrogen™. 10 nM AXL, 2 nM TYRO3 or MER were incubated with varying concentrations of compounds in 50 mM HEPES, pH 7.4, 10 mM MgCl2, 0.01% BSA, 1 mM DTT and 2% DMSO in a total volume of 20 μl in a 384-well microplate (Corning™ #3640) at RT for 1 h. The AXL, TYRO3 and MER enzymatic reaction was initiated by transferring 10 μl of enzyme and compound mixture into 10 μl of 1.6 μM TK Substrate-biotin (HTRF® KinEASE-TK kit, Cisbio) and 1400 μM ATP pre-incubated in 50 mM HEPES, pH 7.4, 10 mM MgCl2, 0.01% BSA, 1 mM DTT in a 384-well microplate (Corning™ #3640) at RT, giving the final reaction conditions: 5 nM AXL, 1 nM TYRO3 or MER, 800 nM TK Substrate-biotin and 700 μM ATP in 50 mM HEPES, pH 7.4, 10 mM MgCl2, 0.01% BSA, 1 mM DTT and 1% DMSO with varying concentrations of compounds. Following 2 h incubation at RT, the AXL, TYRO3 and MER enzymatic reaction was stopped by transfer of 10 μl of reaction into 10 μl of detection mix (400 nM Streptavidin-XL665, 200-fold dilution TK Antibody-Cryptate and detection buffer, HTRF® KinEASE-TK kit, Cisbio) in a white 384-well microplate (Perkin Elmer, OptiPlate 384). After 1 h incubation at RT, the plate was put into a plate reader (Evision) to read at 665/620 nm (acceptor/donor) for HTRF. The value of the DMSO blank (MIN inhibition=100% activity) was used as a negative control. The positive control was established by adding 5 μl of enzyme and DMSO mixture into 10 μl of detection mix followed by addition of 5 μl of TK Substrate-biotin and ATP mixture (MAX inhibition=0% activity). To calculate the percent activity, Equation 1 was used. Ratio 665/620 is the value at a given compound concentration: […]

[2] = target: T2, human TYRO3 (Homo sapiens, UniProt Q06418); assay: HTRF KinEASE-TK biochemical potency assay, TYRO3; settings: 1 nM TYRO3, 700 μM ATP, 800 nM TK Substrate-biotin
T2 construct: purchased Invitrogen
T2 sequence (Q06418 41-890): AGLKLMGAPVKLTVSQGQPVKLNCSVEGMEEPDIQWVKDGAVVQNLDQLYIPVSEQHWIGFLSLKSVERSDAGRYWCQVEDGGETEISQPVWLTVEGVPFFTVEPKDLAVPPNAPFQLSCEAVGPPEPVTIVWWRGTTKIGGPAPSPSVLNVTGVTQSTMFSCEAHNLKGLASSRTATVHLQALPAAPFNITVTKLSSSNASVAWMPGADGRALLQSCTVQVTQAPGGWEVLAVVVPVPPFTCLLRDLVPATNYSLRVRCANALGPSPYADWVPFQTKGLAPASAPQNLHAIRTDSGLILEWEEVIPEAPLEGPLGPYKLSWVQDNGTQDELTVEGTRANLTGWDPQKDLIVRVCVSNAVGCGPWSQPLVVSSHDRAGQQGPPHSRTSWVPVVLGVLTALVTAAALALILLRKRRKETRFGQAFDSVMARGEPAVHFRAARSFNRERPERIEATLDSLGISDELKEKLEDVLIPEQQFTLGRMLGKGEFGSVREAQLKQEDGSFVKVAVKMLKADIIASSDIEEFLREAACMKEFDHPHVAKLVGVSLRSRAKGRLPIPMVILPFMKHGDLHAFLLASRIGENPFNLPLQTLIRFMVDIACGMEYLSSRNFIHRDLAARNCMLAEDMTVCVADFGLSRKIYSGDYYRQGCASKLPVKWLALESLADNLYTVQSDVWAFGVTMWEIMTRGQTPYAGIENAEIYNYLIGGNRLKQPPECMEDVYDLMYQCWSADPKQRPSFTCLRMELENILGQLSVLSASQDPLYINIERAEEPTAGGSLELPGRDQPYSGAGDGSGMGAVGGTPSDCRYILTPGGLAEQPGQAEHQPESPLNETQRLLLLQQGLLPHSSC
Procedure: as §1

Row | SMILES | IC50 [1] [µM] | IC50 [2] [µM]
1 | C[C@@H]1CCCN1C1(C)CCc2ccc(-c3cnc4[nH]nc(-c5ccc(C(=O)N[C@@H]6CCOC6)cc5)c4c3)cc2CC1 (stereo partly drawn) [Example 99, 4-(5-{7-Methyl-7-[(2R)-2-methylpyrrolidin-1-yl]-6,7,8,9-tetrahydro-5H-benzo[7]annulen-2-yl}-1H-pyrazolo[3,4-b]pyridin-3-yl)-N-[(3R)-oxolan-3-yl]benzamide] | > 1 | > 1
2 | C[C@@H]1CCCN1C1(C)CCc2ccc(-c3cnc4[nH]nc(-c5ccc(S(=O)(=O)C6CCCC6)cc5)c4c3)cc2CC1 (stereo partly drawn) [Example 45, 3-(4-(Cyclopentylsulfonyl)phenyl)-5-(7-methyl-7-((R)-2-methylpyrrolidin-1-yl)-6,7,8,9-tetrahydro-5H-benzo[7]annulen-2-yl)-1H-pyrazolo[3,4-b]pyridine] | > 1 | 0.1 to 1
3 | COC1CCN(S(=O)(=O)c2ccc(-c3n[nH]c4ncc(-c5ccc6c(c5)CCC(C)(N5CCC[C@H]5C)CC6)cc34)cc2)CC1 (stereo partly drawn) [Example 103, 3-(4-((4-Methoxypiperidin-1-yl)sulfonyl)phenyl)-5-(7-methyl-7-((R)-2-methylpyrrolidin-1-yl)-6,7,8,9-tetrahydro-5H-benzo[7]annulen-2-yl)-1H-pyrazolo[3,4-b]pyridine] | > 1 | 0.1 to 1
4 | CCC1(N2CCC[C@H]2C)CCc2ccc(-c3cnc4[nH]nc(-c5ccc(S(=O)(=O)C6CC6)cc5)c4c3)cc2CC1 (stereo partly drawn) [Example 6, (2R)-1-(2-{3-[4-(Cyclopropanesulfonyl)phenyl]-1H-pyrazolo[3,4-b]pyridin-5-yl}-7-ethyl-6,7,8,9-tetrahydro-5H-benzo[7]annulen-7-yl)-2-methylpyrrolidine] | > 1 | 0.1 to 1
5 | FC1CN(c2ccc(-c3c[nH]c4ncc(-c5ccc6c(c5)CC[C@@H](N5C7COCC5C7)CC6)cc34)cc2)C1 [Example 127, 6-[(7S)-2-{3-[4-(3-fluoroazetidin-1-yl)phenyl]-1H-pyrrolo[2,3-b]pyridin-5-yl}-6,7,8,9-tetrahydro-5H-benzo[7]annulen-7-yl]-3-oxa-6-azabicyclo[3.1.1]heptane] | > 1 | 0.1 to 1
6 | C[C@@H]1CCCN1C1(C)CCc2ccc(-c3cnc4[nH]nc(-c5ccc(C(C)(C)O)c(Cl)c5)c4c3)cc2CC1 (stereo partly drawn) [Example 57, 2-[2-Chloro-4-(5-{7-methyl-7-[(2R)-2-methylpyrrolidin-1-yl]-6,7,8,9-tetrahydro-5H-benzo[7]annulen-2-yl}-1H-pyrazolo[3,4-b]pyridin-3-yl)phenyl]propan-2-ol] | 0.1 to 1 | 0.1 to 1
7 | C[C@@H]1CCCN1C1CCc2ccc(-c3cnc4[nH]nc(-c5ccc(C(C)(C)O)c(Cl)c5)c4c3)cc2CC1 (stereo partly drawn) [Example 35, 2-(2-Chloro-4-(5-(7-((R)-2-methylpyrrolidin-1-yl)-6,7,8,9-tetrahydro-5H-benzo[7]annulen-2-yl)-1H-pyrazolo[3,4-b]pyridin-3-yl)phenyl)propan-2-ol] | 0.1 to 1 | 0.1 to 1
8 | CS(=O)(=O)c1ccc(-c2n[nH]c3ncc(-c4ccc5c(c4)CCN(C4CCCC4)CC5)cc23)cc1 [Example 30, 3-Cyclopentyl-7-(3-(4-(methylsulfonyl)phenyl)-1H-pyrazolo[3,4-b]pyridin-5-yl)-2,3,4,5-tetrahydro-1H-benzo[d]azepine] | 0.1 to 1 | < 0.1
9 | O=C([C@H]1CCCN1)N1CCc2ccc(-c3cnc4[nH]nc(-c5ccc(S(=O)(=O)C6CC6)cc5)c4c3)cc2CC1 [Example 113, 7-{3-[4-(Cyclopropanesulfonyl)phenyl]-1H-pyrazolo[3,4-b]pyridin-5-yl}-3-[(2R)-pyrrolidine-2-carbonyl]-2,3,4,5-tetrahydro-1H-3-benzazepine] | > 1 | 0.1 to 1
10 | C[C@@H]1CCCN1C1(C)CCc2ccc(-c3cnc4[nH]nc(-c5ccc(C(C)(C)O)nc5)c4c3)cc2CC1 (stereo partly drawn) [Example 22, 2-[5-(5-{7-Methyl-7-[(2R)-2-methylpyrrolidin-1-yl]-6,7,8,9-tetrahydro-5H-benzo[7]annulen-2-yl}-1H-pyrazolo[3,4-b]pyridin-3-yl)pyridin-2-yl]propan-2-ol] | 0.1 to 1 | < 0.1

Results, then the molecule that gave them:

Row | IC50 [1] [µM] | IC50 [2] [µM] | SMILES
11 | 0.1 to 1 | 0.1 to 1 | C[C@@H]1CCCN1C1CCc2ccc(-c3cnc4[nH]nc(-c5ccc(S(=O)(=O)C6CC6)cc5)c4c3)cc2CC1 (stereo partly drawn) [Example 39, 3-(4-(Cyclopropylsulfonyl)phenyl)-5-(7-((R)-2-methylpyrrolidin-1-yl)-6,7,8,9-tetrahydro-5H-benzo[7]annulen-2-yl)-1H-pyrazolo[3,4-b]pyridine]
12 | 0.1 to 1 | < 0.1 | COc1cc(-c2n[nH]c3ncc(-c4ccc5c(c4)CCC(C)(N4CCC[C@H]4C)CC5)cc23)ccc1C(N)=O (stereo partly drawn) [Example 53, 2-Methoxy-4-(5-(7-methyl-7-((R)-2-methylpyrrolidin-1-yl)-6,7,8,9-tetrahydro-5H-benzo[7]annulen-2-yl)-1H-pyrazolo[3,4-b]pyridin-3-yl)benzamide]
13 | 0.1 to 1 | 0.1 to 1 | CC1(N2CCC2)CCc2ccc(-c3cnc4[nH]nc(-c5ccc(S(=O)(=O)C6CC6)cc5)c4c3)cc2CC1 (stereo not shown) [Example 7, 1-(2-{3-[4-(Cyclopropanesulfonyl)phenyl]-1H-pyrazolo[3,4-b]pyridin-5-yl}-7-methyl-6,7,8,9-tetrahydro-5H-benzo[7]annulen-7-yl)azetidine]
14 | 0.1 to 1 | < 0.1 | CC(C)(O)c1ccc(-c2n[nH]c3ncc(-c4ccc5c(c4)CCC(N4CCCC4)CC5)cc23)cn1 (stereo not shown) [Example 9, 2-(5-{5-[7-(Pyrrolidin-1-yl)-6,7,8,9-tetrahydro-5H-benzo[7]annulen-2-yl]-1H-pyrazolo[3,4-b]pyridin-3-yl}pyridin-2-yl)propan-2-ol]
